Consider 31 molecules from US8853412B2, “Pyrrolidinone derivatives as GPR119 modulators for the treatment of diabetes, obesity, dyslipidemia and related disorders” (Sanofi, priority 2012, dated 2014).

By EC50 is commonly meant the concentration that produces a half-maximal response.

This experiment has as its target T1, human GPR119 (Homo sapiens, UniProt Q8TDV5).
T1 construct: expressed in transfected cells; host or cells: HEK-293 cell line stably expressing recombinant GPR119
T1 sequence (Q8TDV5 1-335): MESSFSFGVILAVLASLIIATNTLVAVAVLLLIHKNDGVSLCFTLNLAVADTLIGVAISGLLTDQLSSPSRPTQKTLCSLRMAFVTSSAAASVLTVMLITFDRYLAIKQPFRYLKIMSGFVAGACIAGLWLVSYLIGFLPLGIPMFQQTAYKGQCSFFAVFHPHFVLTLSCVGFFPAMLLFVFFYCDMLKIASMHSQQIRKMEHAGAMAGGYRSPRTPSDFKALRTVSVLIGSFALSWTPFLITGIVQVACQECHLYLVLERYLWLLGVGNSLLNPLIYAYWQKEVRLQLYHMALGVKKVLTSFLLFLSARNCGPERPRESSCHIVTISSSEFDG
Briefly: Functional cellular assay measuring GPR119-mediated cAMP release (HTRF), HEK-293 cells stably expressing recombinant GPR119. In kind it is cell-based. The settings on record: cell line expressing human GPR119; cAMP response, 30 minutes at room temperature. The method, then: Functional Cellular Assays Measuring GPR119-Mediated cAMP Release.
Compounds of the invention, which are agonists of GPR119, were characterized by functional assays measuring the cAMP response of HEK-293 cell lines stably expressing recombinant GPR119 from man, mouse or rat, or by using a hamster cell line HIT-T15 expressing GPR119 endogenously. The cAMP content was determined using a kit based on homogenous time-resolved fluorescence (HTRF) from Cisbio Corp. (cat. no. 62AM4PEC). For preparation, cells were split into T175 culture flasks and grown to near confluency in medium (DMEM/10% FCS for HEK-293 cells, and F-12K medium/10% horse serum/2.5% FCS for HIT-T15 cells, respectively). Medium was then removed and cells washed with PBS lacking calcium and magnesium ions, followed by proteinase treatment with accutase (Sigma-Aldrich, cat. no. A6964). Detached cells were washed and resuspended in assay buffer (1×HBSS; 20 mM HEPES, 0.1% BSA, 2 mM IBMX) and cellular density determined. They were then diluted to 400000 cells/mL and 25 μL-aliquots dispensed to the wells of 96-well plates. For measurement, 25 μL of test compound in assay buffer was added and incubated for 30 minutes at room temperature. After addition of HTRF reagents diluted in lysis buffer, the plates were incubated for 1 hour, followed by measuring the fluorescence ratio at 665 vs. 620 nm. Potency of the agonists was quantified by determining the concentrations that caused 50% of the maximal response/activation (EC50). See Table 10 for exemplary data obtained using the cell line expressing human GPR119.
Regarding `CC(C)CCCc1ccc(O[C@@H]2CCN(c3cc(F)c4c(c3)C(=O)CC4)C2=O)cn1` [Example 3-14], the EC50 amounted to 81 nM.
On to `CC(=O)c1ccc(O[C@@H]2CCN(c3cc(F)c4c(c3)C(=O)CC4)C2=O)cn1` [Example 3-15], for which the EC50 is 29000 nM.
Regarding `O=C1CCc2c(F)cc(N3CC[C@@H](Oc4ccc(SC5CC5)nc4)C3=O)cc21` [Example 3-16], the 50% effective concentration (EC50) is 19 nM.
Consider `O=C1CCc2c(F)cc(N3CC[C@@H](Oc4ccc(SCC5CC5)nc4)C3=O)cc21` [Example 3-17], for which the EC50 was 11 nM.
In the case of `CCOc1ncc(O[C@@H]2CCN(c3cc(F)c4c(c3)C(=O)CC4)C2=O)cc1F` [Example 3-18], the EC50 was determined as 45 nM.
Take `O=C1CCc2c(F)cc(N3CC[C@@H](Oc4cnc(OCC5CC5)c(Br)c4)C3=O)cc21` [Example 3-19]: the concentration giving a half-maximal response (EC50) is 12 nM.
As to `CC(C)Oc1ccc(O[C@H]2CCN(c3cc(F)c4c(c3)C(=O)CC4)C2=O)cn1` [Example 3-20], the concentration giving a half-maximal response (EC50) came out at 1050 nM.
As to `CCOc1ccc(O[C@H]2CCN(c3cc(F)c4c(c3)C(=O)CC4)C2=O)cn1` [Example 3-21], the EC50 came out at 1980 nM.
In the case of `O=C1CCc2c(Cl)cc(N3CC[C@@H](Oc4ccc(OCC5CC5)nc4)C3=O)cc21` [Example 4-01] it was 64 nM; in that of `Cc1cc(N2CC[C@@H](Oc3ccc(OCC4CC4)nc3)C2=O)cc2c1CCC2=O` [Example 4-02], 283 nM; in that of `N#Cc1cc(N2CC[C@@H](Oc3ccc(OCC4CC4)nc3)C2=O)cc2c1CCC2=O` [Example 4-03], 97 nM.
For `O=C1CCc2c(F)cc(N3CC[C@@H](Oc4ccnc(OCCC5CC5)c4)C3=O)cc21` [Example 5-01], the EC50 is 22 nM.
`CCCCOc1cc(O[C@@H]2CCN(c3cc(F)c4c(c3)C(=O)CC4)C2=O)ccn1` [Example 5-02]: the EC50 came out at 190 nM.
Turning to `O=C1CCc2c(F)cc(N3CC[C@@H](Oc4ccnc(OCC5CC5)c4)C3=O)cc21` [Example 5-03], the 50% effective concentration (EC50) stood at 40 nM.
Consider `CCOc1cc(O[C@@H]2CCN(c3cc(F)c4c(c3)C(=O)CC4)C2=O)ccn1` [Example 5-04], for which the EC50 came out at 169 nM.
`CCCOc1cc(O[C@@H]2CCN(c3cc(F)c4c(c3)C(=O)CC4)C2=O)ccn1` [Example 5-05]: the EC50 came to 65 nM.
For the molecule `CCCCCOc1cc(O[C@@H]2CCN(c3cc(F)c4c(c3)C(=O)CC4)C2=O)ccn1` [Example 5-06], the EC50 came out at 32 nM.
In the case of `O=C1CCc2c(F)cc(N3CC[C@@H](Oc4ccnc(OCC(F)(F)F)c4)C3=O)cc21` [Example 5-07] it was 30 nM; in that of `CC(C)Oc1cc(O[C@@H]2CCN(c3cc(F)c4c(c3)C(=O)CC4)C2=O)ccn1` [Example 5-08], 72 nM; in that of `COCCCOc1cc(O[C@@H]2CCN(c3cc(F)c4c(c3)C(=O)CC4)C2=O)ccn1` [Example 5-09], 126 nM.
Turning to `O=C1CCc2c(F)cc(N3CC[C@@H](Oc4ccnc(OC5CCC5)c4)C3=O)cc21` [Example 5-10], the EC50 is 28 nM.
As for `O=C1CCc2c(F)cc(N3CC[C@@H](Oc4ccc(Oc5ccc(F)cn5)nc4)C3=O)cc21` [Example 6-01], the EC50 turned out to be 216 nM.
Consider `O=C1CCc2c(F)cc(N3CC[C@@H](Oc4ccc(OCC5CC5)[n+]([O-])c4)C3=O)cc21` [Example 7-01], for which the EC50 is 5590 nM.
Consider `COC(=O)c1cc(O[C@@H]2CCN(c3cc(F)c4c(c3)C(=O)CC4)C2=O)cnc1OCC1CC1` [Example 8-01], for which the EC50 came out at 64 nM.
In the case of `O=C(O)c1cc(O[C@@H]2CCN(c3cc(F)c4c(c3)C(=O)CC4)C2=O)cnc1OCC1CC1` [Example 8-02], the 50% effective concentration (EC50) is 2690 nM.
Then `CN(C)C(=O)c1cc(O[C@@H]2CCN(c3cc(F)c4c(c3)C(=O)CC4)C2=O)cnc1OCC1CC1` [Example 8-03], with above 100000 nM; and `CCCc1cc(O[C@@H]2CCN(c3cc(F)c4c(c3)C(=O)CC4)C2=O)cnc1OCC1CC1` [Example 8-04], with 109 nM.
`N#Cc1cc(O[C@@H]2CCN(c3cc(F)c4c(c3)C(=O)CC4)C2=O)cnc1OCC1CC1` [Example 8-05]: the EC50 came to 242 nM.
In the case of `O=C1CCc2c(F)cc(N3CC[C@@H](Oc4ccc(OCC5CC5)nc4)C3=O)c(F)c21` [Example 9-01], the EC50 came to 19 nM.
Consider `O=C1CCc2c(F)cc(N3CC[C@@H](Oc4ccc(OC5CC5)nc4)C3=O)c(F)c21` [Example 9-02], for which the EC50 was 69 nM.
Turning to `O=C1CCc2ccc(N3CC[C@@H](Oc4ccc(OCC5CC5)nc4)C3=O)c(F)c21` [Example 9-03], the EC50 was determined as 46 nM.
